Assay results reported in ChEMBL document CHEMBL1201862, “PubChem BioAssay data set” (2004).
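1) Cells in 96-well plates. 2) Compound, 48 h, 5 concentrations. 3) Linear interpolation between surrounding doses. 4) Unreached endpoint = highest concentration. GI50 is the concentration that inhibits growth by half.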 The source made the active and inactive calls. No stated cut-off is given here; in the data, active = GI50 up to about 1.1 µM and inactive = higher.

Key:
Experiment in all cases: NCI-60 cell line screen, 48 h
A498 = tested on: A498
MOLT-4 = tested on: MOLT-4
ACHN = tested on: ACHN
HL-60 = tested on: HL-60
KM12 = tested on: KM12
MDA-MB-231 = tested on: MDA-MB-231
Malme-3M = tested on: Malme-3M
UACC-62 = tested on: UACC-62
HCT-15 = tested on: HCT-15
HT-29 = tested on: HT-29
SK-OV-3 = tested on: SK-OV-3
SK-MEL-2 = tested on: SK-MEL-2
NCI-H522 = tested on: NCI-H522
OVCAR-5 = tested on: OVCAR-5
MCF7 = tested on: MCF7
SK-MEL-28 = tested on: SK-MEL-28
NCI-H23 = tested on: NCI-H23
LOX IMVI = tested on: LOX IMVI
NCI-H460 = tested on: NCI-H460
786-0 = tested on: 786-0
DU-145 = tested on: DU-145
SK-MEL-5 = tested on: SK-MEL-5
UO-31 = tested on: UO-31
CAKI-1 = tested on: CAKI-1
OVCAR-3 = tested on: OVCAR-3
SR = tested on: SR
COLO 205 = tested on: COLO 205
TK-10 = tested on: TK-10
OVCAR-8 = tested on: OVCAR-8
SF-295 = tested on: SF-295
Hs-578T = tested on: Hs-578T
UACC-257 = tested on: UACC-257
A549 = tested on: A549
IGROV-1 = tested on: IGROV-1
T47D = tested on: T47D
SW-620 = tested on: SW-620
EKVX = tested on: EKVX
SF-268 = tested on: SF-268
NCI/ADR-RES = tested on: NCI/ADR-RES
MDA-MB-435 = tested on: MDA-MB-435
SNB-75 = tested on: SNB-75
CCRF-CEM = tested on: CCRF-CEM
OVCAR-4 = tested on: OVCAR-4
HCC 2998 = tested on: HCC 2998
NCI-H226 = tested on: NCI-H226
K562 = tested on: K562
U-251 = tested on: U-251
BT-549 = tested on: BT-549
HOP-92 = tested on: HOP-92
RXF 393 = tested on: RXF 393
HOP-62 = tested on: HOP-62
SF-539 = tested on: SF-539
RPMI-8226 = tested on: RPMI-8226
HCT-116 = tested on: HCT-116
SN12C = tested on: SN12C
PC-3 = tested on: PC-3
SNB-19 = tested on: SNB-19
M14 = tested on: M14

In the case of `CN(/N=C\c1ccc2ccccc2c1)C1=NCCN1`, the GI50 (A498) is reported as 12.1 µM (inactive), the GI50 (MOLT-4) is reported as 14.7 µM (inactive) and the GI50 (ACHN) is reported as 23.1 µM (inactive). The GI50 (HL-60) was 10.4 µM (inactive), the GI50 (KM12) was 15.7 µM (inactive) and the GI50 (MDA-MB-231) was 16.4 µM (inactive). For the same compound, the GI50 (Malme-3M) was 15.6 µM (inactive), the GI50 (UACC-62) was 18.3 µM (inactive) and the GI50 (HCT-15) was 25.2 µM. The GI50 (HT-29) was 13.3 µM (inactive), the GI50 (SK-OV-3) was 35.8 µM (inactive) and the GI50 (SK-MEL-2) was 15.2 µM (inactive). The GI50 (NCI-H522) was 15.7 µM (inactive), the GI50 (OVCAR-5) was 34.8 µM (inactive) and the GI50 (MCF7) was 16.3 µM (inactive). The GI50 (SK-MEL-28) was 13.6 µM (inactive), the GI50 (NCI-H23) was 30.7 µM (inactive) and the GI50 (LOX IMVI) was 11.2 µM (inactive). For the same compound, the GI50 (NCI-H460) was 12.5 µM (inactive), the GI50 (786-0) was 15.6 µM (inactive) and the GI50 (DU-145) was 25.6 µM (inactive). The GI50 (SK-MEL-5) was 14.3 µM (inactive), the GI50 (UO-31) was 13.2 µM (inactive) and the GI50 (CAKI-1) was 10.3 µM (inactive). For the same compound, the GI50 (OVCAR-3) was 31.9 µM (inactive), the GI50 (SR) was 17.3 µM (inactive) and the GI50 (COLO 205) was 15.3 µM (inactive). The GI50 (TK-10) was 13.2 µM (inactive), the GI50 (OVCAR-8) was 30.3 µM (inactive) and the GI50 (SF-295) was 14.4 µM (inactive). For the same compound, the GI50 (Hs-578T) was 20.4 µM (inactive), the GI50 (UACC-257) was 14.8 µM (inactive) and the GI50 (A549) was 15.8 µM (inactive). For the same compound, the GI50 (IGROV-1) was 19.5 µM (inactive), the GI50 (T47D) was 26.2 µM (inactive) and the GI50 (SW-620) was 19.1 µM (inactive). The GI50 (EKVX) was 19.8 µM (inactive), the GI50 (SF-268) was 27.5 µM (inactive) and the GI50 (NCI/ADR-RES) was 20.6 µM (inactive). The GI50 (MDA-MB-435) was 15.6 µM (inactive), the GI50 (SNB-75) was 10.6 µM (inactive) and the GI50 (CCRF-CEM) was 24.3 µM (inactive). The GI50 (OVCAR-4) was 20.8 µM (inactive), the GI50 (HCC 2998) was 16.2 µM (inactive) and the GI50 (NCI-H226) was 16.3 µM (inactive). The GI50 (K562) was 18.1 µM (inactive), the GI50 (U-251) was 18 µM (inactive) and the GI50 (BT-549) was 12.1 µM (inactive). For the same compound, the GI50 (HOP-92) was 0.0817 µM (active), the GI50 (RXF 393) was 8.63 µM (inactive) and the GI50 (HOP-62) was 18.5 µM (inactive). For the same compound, the GI50 (SF-539) was 17.7 µM (inactive), the GI50 (RPMI-8226) was 17.3 µM (inactive) and the GI50 (HCT-116) was 15.8 µM (inactive).

With `Oc1c(C(O)c2ccccn2)ccc2ccccc12` (configuration not stated) the GI50 (MOLT-4) was 19.6 µM (inactive), the GI50 (ACHN) was 66.4 µM (inactive) and the GI50 (HL-60) was 15.1 µM (inactive). For the same compound, the GI50 (KM12) was 54.1 µM (inactive), the GI50 (UACC-62) was 14.4 µM (inactive) and the GI50 (HCT-15) was 22.1 µM. The GI50 (SN12C) was 48.1 µM (inactive), the GI50 (NCI-H522) was 17.4 µM (inactive) and the GI50 (PC-3) was 26.9 µM (inactive). The GI50 (NCI-H23) was 69.8 µM (inactive), the GI50 (LOX IMVI) was > 100 µM (inactive) and the GI50 (SNB-19) was > 100 µM (inactive). For the same compound, the GI50 (DU-145) was > 100 µM (inactive), the GI50 (SK-MEL-5) was 22.7 µM (inactive) and the GI50 (UO-31) was 29.6 µM (inactive). The GI50 (OVCAR-3) was 56.8 µM (inactive), the GI50 (OVCAR-8) was 74.6 µM (inactive) and the GI50 (M14) was > 100 µM (inactive). For the same compound, the GI50 (SF-295) was > 100 µM (inactive), the GI50 (Hs-578T) was 35.1 µM (inactive) and the GI50 (UACC-257) was > 100 µM (inactive). The GI50 (A549) was 61.7 µM (inactive), the GI50 (T47D) was > 100 µM (inactive) and the GI50 (EKVX) was 53.1 µM (inactive). For the same compound, the GI50 (SF-268) was 72.4 µM (inactive), the GI50 (NCI/ADR-RES) was 42.1 µM (inactive) and the GI50 (SNB-75) was 24.4 µM (inactive). The GI50 (CCRF-CEM) was 17.9 µM (inactive), the GI50 (HCC 2998) was 17.1 µM (inactive) and the GI50 (NCI-H226) was 85.3 µM (inactive). The GI50 (K562) was 26.4 µM (inactive), the GI50 (U-251) was 52 µM (inactive) and the GI50 (RXF 393) was 32.9 µM (inactive). For the same compound, the GI50 (HOP-62) was 81.3 µM (inactive), the GI50 (SF-539) was 87.3 µM (inactive) and the GI50 (HCT-116) was 32.2 µM (inactive).

`CN(CCCNC(=O)c1nn(C)c2c1Cc1ccccc1-2)CCCNC(=O)c1nn(C)c2c1Cc1ccccc1-2` was tested, and the GI50 (A498) was 17 µM (inactive), the GI50 (MOLT-4) was 4.73 µM (inactive) and the GI50 (ACHN) was 16.7 µM (inactive). The GI50 (HL-60) was 5.28 µM (inactive), the GI50 (KM12) was 16.2 µM (inactive) and the GI50 (MDA-MB-231) was 19.3 µM (inactive). The GI50 (Malme-3M) was 20.5 µM (inactive), the GI50 (UACC-62) was 19.4 µM (inactive) and the GI50 (HCT-15) was 17.7 µM. The GI50 (HT-29) was 13.3 µM (inactive), the GI50 (SK-OV-3) was 16 µM (inactive) and the GI50 (SK-MEL-2) was 16 µM (inactive). The GI50 (SN12C) was 16.5 µM (inactive), the GI50 (NCI-H522) was 21.8 µM (inactive) and the GI50 (PC-3) was 16.2 µM (inactive). For the same compound, the GI50 (OVCAR-5) was 18.3 µM (inactive), the GI50 (MCF7) was 15 µM (inactive) and the GI50 (SK-MEL-28) was 20.1 µM (inactive). The GI50 (NCI-H23) was 21.9 µM (inactive), the GI50 (LOX IMVI) was 2.49 µM (inactive) and the GI50 (NCI-H460) was 18 µM (inactive). For the same compound, the GI50 (786-0) was 10.7 µM (inactive), the GI50 (SNB-19) was 9.53 µM (inactive) and the GI50 (DU-145) was 16.9 µM (inactive). For the same compound, the GI50 (SK-MEL-5) was 13.5 µM (inactive), the GI50 (UO-31) was 0.614 µM (active) and the GI50 (CAKI-1) was 18.7 µM (inactive). For the same compound, the GI50 (OVCAR-3) was 16.1 µM (inactive), the GI50 (SR) was 2.99 µM (inactive) and the GI50 (COLO 205) was 13.7 µM (inactive). For the same compound, the GI50 (TK-10) was 19.1 µM (inactive), the GI50 (OVCAR-8) was 19.6 µM (inactive) and the GI50 (M14) was 6.15 µM (inactive). The GI50 (SF-295) was 18.2 µM (inactive), the GI50 (Hs-578T) was 20.5 µM (inactive) and the GI50 (UACC-257) was 12.1 µM (inactive). For the same compound, the GI50 (A549) was 16.5 µM (inactive), the GI50 (IGROV-1) was 15.3 µM (inactive) and the GI50 (T47D) was 22.5 µM (inactive). For the same compound, the GI50 (SW-620) was 10.1 µM (inactive), the GI50 (EKVX) was 19.2 µM (inactive) and the GI50 (SF-268) was 19.2 µM (inactive). For the same compound, the GI50 (NCI/ADR-RES) was 24.4 µM (inactive), the GI50 (MDA-MB-435) was 10.8 µM (inactive) and the GI50 (SNB-75) was 15.2 µM (inactive). The GI50 (CCRF-CEM) was 2.18 µM (inactive), the GI50 (OVCAR-4) was 16.3 µM (inactive) and the GI50 (HCC 2998) was 8.22 µM (inactive). The GI50 (K562) was 7.94 µM (inactive), the GI50 (U-251) was 12.5 µM (inactive) and the GI50 (BT-549) was 21 µM (inactive). For the same compound, the GI50 (HOP-92) was 15.6 µM (inactive), the GI50 (RXF 393) was 13.9 µM (inactive) and the GI50 (HOP-62) was 10.8 µM (inactive). The GI50 (SF-539) was 16.4 µM (inactive), the GI50 (RPMI-8226) was 13.3 µM (inactive) and the GI50 (HCT-116) was 14.3 µM (inactive).
